Assays:
MLL-AF9 induced AML = assay: MLL-AF9 BMT assay, leukemic burden (spleen weight, WBC); type: in vivo, mouse; details: FoxO1/3/4 floxed
Protocol: MLL-AF9-positive FoxO1/3/4^floxed murine bone marrow (BM) cell recovered from a leukemic primary recipient mousecarrying the Mx1-Cre transgene (Mx1-Cre+) or not (Mx1-Cre−) were transplanted into sub-lethally irradiated secondary recipient mice. Fourteen days following transplant 50% of both Mx1-Cre+ and Mx1-Cre− mice were administered pI-pC and the remaining 50% of mice from each condition were given saline. At the first sign of leukemia all mice from each Mx1-Cre condition status were euthanized (Day 29 for Mx1-Cre−(saline and pI-pC treated) and Day 39 for Mx1-Cre+ (saline & pI-pC-treated)).
After transduction, infected cells were transplanted into lethally irradiated (2 doses of 450rad gIR separated by 12 hours) F1 FVB/C57/Bl6 mice. Recipient mice developed leukemia within 70-80 days with a median survival of 77 days. Mononuclear BM cells recovered from leukemic mice were then transplanted into secondary sub-lethally irradiated recipients. Fourteen days following transplant, secondary recipients were administered intra-peritoneally three doses of saline or 12.5 mg/kg pI-pC (GE Healthcare Life Sciences) every 2 days. Mice were then monitored for external (i.e. moribund) and internal (white blood cell counts) signs of leukemia.
To address whether FoxO1/3/4 are essential to maintain MLL-AF9 induced AML in vivo, a MLL-AF9 bone marrow transplant (BMT) assay was used in a mouse bearing homozygous Lox-P flanked (floxed) alleles of FoxO1/3/4 and the interferon-inducible Mx1-Cre transgene (FoxO1/3/4^floxed; Mx1-Cre+; MLL-AF9). MLL-AF9 transformed FoxO1/3/4^floxed BM cells without the Mx1-Cre transgene (FoxO1/3/4^floxed; Mx1-Cre−; MLL-AF9) were used as controls. Leukemia cells from each context (recovered from primary recipients displaying frank leukemia) were harvested and transplanted into sub-lethally irradiated recipients. Fourteen days post-transplant, secondary recipients receiving FoxO1/3/4^floxed; Mx1-Cre+; MLL-AF9 cells or FoxO1/3/4^floxed; Mx1-Cre−; MLL-AF9 controls were either administered polyinosine-polycytidyline (pI-pC) to induce excision of FoxO1/3/4 floxed alleles or saline control (FIG. 9A). At the first presentation of AML, all mice from each group (Mx1-Cre− versus Mx1-Cre+) were euthanized and assessed for leukemic burden as defined by spleen weight and peripheral white blood cell (WBC) counts. […] In contrast, pI-pC-treated FoxO1/3/4^floxed; Mx1-Cre+; MLL-AF9 transplant mice retained normal spleen weights and WBC counts (FIGS. 9B-D and 10A).

FoxO1, FoxO3, FoxO4 = assay: Excision efficiency (Real Time PCR, western blot) in BM; type: in vivo, mouse
Description: RNA recovered from BM was converted to cDNA and then analyzed for FoxO1 (FIG. 10C.), FoxO3 (FIG. 10D.), FoxO4 (FIG. 10E.) and GAPDH expression by quantitative Real Time PCR. Each FoxO gene expression is normalized with GAPDH expression.
BM recovered from one saline-treated FoxO1/3/4^floxed; MLL-AF9; Mx1-Cre+ mouse (lane 1) five FoxO1/3/4^floxed; MLL-AF9; Mx1-Cre+ mice treated with pI-pC (lanes 2-6) that succumbed to AML-related death were subjected to Western blot with FoxO3 (75D8) and Tubulin antibodies.

[1] = Mx1-Cre+, MLL-AF9 mice, pI-pC induces excision of FoxO1/3/4

## polyinosine-polycytidyline [pI-pC]
MLL-AF9 induced AML; [1]
  WBC counts: normal
  spleen weights: normal
MLL-AF9 induced AML; Mx1-Cre+, MLL-AF9 mice, data not shown
  lymphoid-myeloid ratio in peripheral blood: normal lymphoid-myeloid ratio
MLL-AF9 induced AML; Mx1-Cre−, MLL-AF9 recipients (no excision)
  splenomegaly and leukocytosis: developed splenomegaly and leukocytosis
FoxO1, FoxO3, FoxO4; BM RNA
  FOXO1/3/4 expression (quantitative Real Time PCR, normalized with GAPDH): suppression of FOXO1/3/4 expression
FoxO1, FoxO3, FoxO4; BM of Mx1-Cre+ mice that succumbed to AML
  FOXO3 (Western blot): below detection

Reference: patent US20140206624A1, “TREATMENT OF LEUKEMIA” (THE BRIGHAM AND WOMEN'S HOSPITAL, INC., priority 2011, published 2014)
